Data published in the supplement of paper PMC10307832.

How the values were obtained:
Test in all cases: relative viability (nuclei count vs DMSO), 5 days (fraction); higher = more cells survive
[1] = compound: O=C(O)c1ccc2c(c1)nc(Nc1cccc(Cl)c1)c1ccncc12 [Silmitasertib] + Cc1nc(Nc2ncc(C(=O)Nc3c(C)cccc3Cl)s2)cc(N2CCN(CCO)CC2)n1 [Dasatinib] (partner 0.075 µM)
In short: (§1)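 Relative viability is defined as nuclei in treated wells over nuclei in vehicle wells. Duplicate plates were run and medians reported. Lung cancer cell lines in 1536-well plates were dosed by pin tool one day after seeding, with one drug or with a fixed anchor-drug dose plus five library-drug doses (not always all listed) in √10 steps, and nuclei were counted after 5 days.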

[2] = compound: O=C(O)c1ccc2c(c1)nc(Nc1cccc(Cl)c1)c1ccncc12 [Silmitasertib] + O=C(CCCCCCC(=O)Nc1ccccc1)NO [Vorinostat] (partner 1 µM)
In short: as §1

[3] = compound: O=C(O)c1ccc2c(c1)nc(Nc1cccc(Cl)c1)c1ccncc12 [Silmitasertib] + Cc1cc(Nc2cc(N3CCN(C)CC3)nc(Sc3ccc(NC(=O)C4CC4)cc3)n2)n[nH]1 [Tozasertib] (partner 0.1 µM)
In short: as §1

[4] = compound: O=C(O)c1ccc2c(c1)nc(Nc1cccc(Cl)c1)c1ccncc12 [Silmitasertib] + C[C@]1(O)C[C@@H](c2nc(-c3ccc4ccc(-c5ccccc5)nc4c3)c3c(N)nccn32)C1 [Linsitinib] (partner 1 µM)
In short: as §1

Silmitasertib + Olaparib = compound: O=C(O)c1ccc2c(c1)nc(Nc1cccc(Cl)c1)c1ccncc12 [Silmitasertib] + O=C(c1cc(Cc2n[nH]c(=O)c3ccccc23)ccc1F)N1CCN(C(=O)C2CC2)CC1 [Olaparib] (partner 8 µM)
In short: as §1

Cell Line	relative viability ([1]; first compound 0.04 µM)	relative viability ([1]; first compound 0.4 µM)	relative viability ([1]; first compound 1.265 µM)	relative viability ([1]; first compound 4 µM)	relative viability ([2]; first compound 0.04 µM)	relative viability ([2]; first compound 0.4 µM)	relative viability ([2]; first compound 1.265 µM)	relative viability ([2]; first compound 4 µM)	relative viability ([3]; first compound 0.04 µM)	relative viability ([3]; first compound 0.4 µM)	relative viability ([3]; first compound 1.265 µM)	relative viability ([3]; first compound 4 µM)	relative viability ([4]; first compound 0.04 µM)	relative viability ([4]; first compound 0.4 µM)	relative viability ([4]; first compound 1.265 µM)	relative viability ([4]; first compound 4 µM)	relative viability (Silmitasertib + Olaparib; first compound 0.04 µM)	relative viability (Silmitasertib + Olaparib; first compound 0.4 µM)	relative viability (Silmitasertib + Olaparib; first compound 1.265 µM)	relative viability (Silmitasertib + Olaparib; first compound 4 µM)
NCI-H2405	0.221	0.209	0.222	0.236	1.1	0.927	0.839	0.519	0.772	0.526	0.652	0.665	1.16	0.783	0.856	0.887	0.896	0.717	0.851	0.756
NCI-H3122	0.807	0.706	0.84	0.834	1.04	0.807	0.679	1.19	0.427	0.41	0.334	0.305	0.957	0.953	0.948	1.15	0.675	0.371	0.616	0.644
PC-3 [JPC-3]	1.04	0.628	1.03	0.899	0.815	0.706	0.833	0.436	0.971	0.69	0.86	0.835	0.98	0.964	1.03	0.986	1.22	0.737	1.12	1.13
PC-14	0.273	0.236	0.293	0.388	0.893	–	0.734	0.482	0.668	–	0.595	0.532	0.966	0.999	1.01	0.993	0.346	0.163	0.34	0.272
RERF-LC-KJ	0.879	0.735	0.393	0.435	0.768	0.517	0.463	0.371	0.546	0.531	0.382	0.248	0.858	0.876	0.689	0.672	0.909	0.829	0.785	0.74
SK-LU-1	0.203	0.164	0.172	0.175	0.851	0.673	0.587	0.35	0.358	0.315	0.221	0.195	1.22	0.987	0.688	0.297	0.45	0.267	0.308	0.225
SK-MES-1	0.47	0.283	0.294	0.232	1.21	0.876	0.8	0.297	1.07	1.02	0.542	0.159	1.18	1.13	1.11	1.09	0.777	0.623	0.289	0.207
SW 1573	0.624	0.516	0.576	0.451	1.17	0.661	0.908	0.577	0.199	0.185	0.231	0.187	0.805	0.679	0.855	0.682	0.552	0.457	0.428	0.427
UMC-11	0.508	0.477	0.491	0.331	0.388	0.522	0.439	0.333	0.199	0.218	0.184	0.16	1.04	1.08	1.1	0.678	0.335	0.298	0.301	0.26
